Assays:
TDO (A172 cells) = target: T1, TDO (A172 cells) (Homo sapiens, UniProt P48775); assay: TDO cell-based assay (A172), kynurenine production; conditions: A172 human glioblastoma cells, 500 μM L-Trp, 48 h, kynurenine by absorbance at 490 nm
T1 construct: This assay utilised cancer cells which expressed either TDO or IDO; host or cells: A172 human glioblastoma cells
Text: (§1) Two different types of assay were employed: 1. A TDO and IDO biochemical coupled assay which utilised recombinantly produced and purified TDO and IDO enzymes in combination with the enzyme formamidase. This coupled enzyme system allowed conversion of N-formylkynurenine produced by TDO or IDO activity to kynurenine which was then quantified by fluorescence following addition of Erhlich's Reagent. 2. A cell-based assay for detecting the effect of test compounds on kynurenine production in two different cancer cell types. This assay utilised cancer cells which expressed either TDO or IDO and as such was used as a means of testing compound activity at these two enzymes in a cell-based context. The protocols for these are set out below.
(§2) A172 human glioblastoma (ATCC) were grown in DMEM+2 mM L-glutamine medium supplemented with 10% foetal bovine serum and SKOV-3 ovary adenocarcinoma (ATCC) cells were grown in McCoys 5A+L-glutamax medium supplemented with 15% foetal bovine serum. On the day of assay, cells were detached using trypsin-EDTA (0.25% v/v), re-suspended in assay media (RPMI 1640 phenol red free+L-glutamine supplemented with 10% dialysed foetal bovine serum). A172 cells were seeded at 30K cells per well and SKOV-3 cells at 40K cells per well into 96-well plates containing test samples/vehicle control together with 500 μM L-Trp. Cells were then incubated for 48 h at 37° C., 5% CO2. In SK-OV-3 cells, IFNγ was also added at 500 ng/ml for the 48 h incubation in order to induce expression of IDO. Plates were centrifuged and the supernatant was removed and incubated for 5 min in the presence of 1% Erhlich's reagent. Kynurenine levels were then quantified by measuring absorbance at 490 nm.

IDO (SKOV-3 cells) = target: T2, IDO (SKOV-3 cells) (Homo sapiens, UniProt P14902); assay: IDO cell-based assay (SKOV-3, IFNγ-induced), kynurenine production; conditions: SKOV-3 ovary adenocarcinoma cells, IFNγ 500 ng/ml, 500 μM L-Trp, 48 h, kynurenine by absorbance at 490 nm
T2 construct: This assay utilised cancer cells which expressed either TDO or IDO; host or cells: SKOV-3 ovary adenocarcinoma cells, IFNγ-induced
Text: as §1, §2

T2 sequence (P14902 whole entry): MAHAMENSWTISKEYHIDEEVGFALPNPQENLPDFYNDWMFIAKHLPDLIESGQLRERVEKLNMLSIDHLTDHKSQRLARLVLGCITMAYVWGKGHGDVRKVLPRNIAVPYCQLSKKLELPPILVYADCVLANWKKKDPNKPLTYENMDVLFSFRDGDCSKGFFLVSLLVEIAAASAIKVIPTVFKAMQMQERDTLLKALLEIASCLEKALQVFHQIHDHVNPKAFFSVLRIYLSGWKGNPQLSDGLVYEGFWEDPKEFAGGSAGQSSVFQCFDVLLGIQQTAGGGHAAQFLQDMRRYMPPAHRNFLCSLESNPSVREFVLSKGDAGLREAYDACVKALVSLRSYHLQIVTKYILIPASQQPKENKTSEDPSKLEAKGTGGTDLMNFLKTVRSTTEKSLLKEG
T1 sequence (P48775 whole entry): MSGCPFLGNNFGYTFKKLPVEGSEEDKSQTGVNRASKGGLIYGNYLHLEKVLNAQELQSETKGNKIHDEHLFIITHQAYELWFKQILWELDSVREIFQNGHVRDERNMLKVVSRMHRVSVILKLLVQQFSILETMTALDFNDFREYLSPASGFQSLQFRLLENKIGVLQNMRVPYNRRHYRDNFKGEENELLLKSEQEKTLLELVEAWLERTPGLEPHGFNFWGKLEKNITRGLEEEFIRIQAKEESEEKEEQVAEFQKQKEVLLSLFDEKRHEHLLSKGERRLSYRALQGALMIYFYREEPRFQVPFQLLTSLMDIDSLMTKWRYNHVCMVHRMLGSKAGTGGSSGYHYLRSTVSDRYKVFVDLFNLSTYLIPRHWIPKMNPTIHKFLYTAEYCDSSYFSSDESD

| SMILES | TDO cellular assay (A172) pIC50 (TDO (A172 cells)) | IDO cellular assay (SKOV3) pIC50 (IDO (SKOV-3 cells)) | IC50 (TDO (A172 cells); read-out: TDO cellular assay (A172) pIC50 (converted)) | IC50 (IDO (SKOV-3 cells); read-out: IDO cellular assay (SKOV3) pIC50 (converted)) |
| --- | --- | --- | --- | --- |
| CC(NC(=O)c1cc2cc(F)ccc2[nH]1)c1ccccn1 (stereo not drawn) [Compound 42] | − (− = pIC50 <4.50) | ++ (++ = pIC50 5.00-<5.50) |  |  |
| C[C@@H](NC(=O)c1cc2cc(F)ccc2[nH]1)c1ccccc1 [Compound 43] | ++ (++ = pIC50 5.00-<5.50) | +++ (+++ = pIC50 ≥5.50) |  |  |
| C[C@@H](NC(=O)c1cc2ccc(F)cc2[nH]1)c1ccccc1 [Compound 44] | + (+ = pIC50 4.50-<5.00) | +++ (+++ = pIC50 ≥5.50) |  |  |
| C[C@H](NC(=O)c1cc2ccc(F)cc2[nH]1)c1ccccc1 [Compound 45] | − (− = pIC50 <4.50) | + (+ = pIC50 4.50-<5.00) |  |  |
| C[C@@H](NC(=O)c1cc2cc(F)ccc2n1C)c1ccccc1 [Compound 46] | − (− = pIC50 <4.50) | ++ (++ = pIC50 5.00-<5.50) |  |  |
| C[C@@H](NC(=O)c1cc2ccc(Cl)cc2[nH]1)c1ccccc1 [Compound 47] | ++ (++ = pIC50 5.00-<5.50) | ++ (++ = pIC50 5.00-<5.50) |  |  |
| C[C@@H](NC(=O)c1cc2cc(Cl)ccc2[nH]1)c1ccccc1 [Compound 48] |  |  | 3.16 to 10 µM | ≤ 3.16 µM |
| C[C@H](NC(=O)c1cc2ccc(Cl)cc2[nH]1)c1ccccc1 [Compound 49] | + (+ = pIC50 4.50-<5.00) | ++ (++ = pIC50 5.00-<5.50) |  |  |
| C[C@H](NC(=O)c1cc2cc(Cl)ccc2[nH]1)c1ccccc1 [Compound 50] | +++ (+++ = pIC50 ≥5.50) | +++ (+++ = pIC50 ≥5.50) |  |  |
| O=C(Nc1cccc2ccccc12)c1cc2cc(F)ccc2[nH]1 [Compound 51] | − (− = pIC50 <4.50) | +++ (+++ = pIC50 ≥5.50) |  |  |
| O=C(NCc1cc2cc(F)ccc2[nH]1)c1ccccc1 [Compound 52] | + (+ = pIC50 4.50-<5.00) | + (+ = pIC50 4.50-<5.00) |  |  |
| C[C@@H](NC(=O)c1cc2c([nH]1)CCCC2)c1ccccc1 [Compound 53] | − (− = pIC50 <4.50) | + (+ = pIC50 4.50-<5.00) |  |  |
| CC(NC(=O)c1cc2cc(F)ccc2[nH]1)c1cccnc1 (stereo not drawn) [Compound 54] | − (− = pIC50 <4.50) | + (+ = pIC50 4.50-<5.00) |  |  |
| C[C@H](NC(=O)c1cc2c([nH]1)CCCC2)c1ccccc1 [Compound 55] | + (+ = pIC50 4.50-<5.00) | − (− = pIC50 <4.50) |  |  |
| C[C@H](NC(=O)c1cc2c(F)cccc2[nH]1)c1ccccc1 [Compound 56] | + (+ = pIC50 4.50-<5.00) | + (+ = pIC50 4.50-<5.00) |  |  |
| O=S(=O)(NCc1cc2cc(F)ccc2[nH]1)c1ccccc1 [Compound 57] | + (+ = pIC50 4.50-<5.00) | − (− = pIC50 <4.50) |  |  |
| CC(NC(=O)c1cc2cc(F)ccc2[nH]1)c1ccncc1 (stereo not drawn) [Compound 58] | − (− = pIC50 <4.50) | ++ (++ = pIC50 5.00-<5.50) |  |  |
| C[C@@H](c1ccccc1)N(C)C(=O)c1cc2cc(F)ccc2[nH]1 [Compound 59] | − (− = pIC50 <4.50) | + (+ = pIC50 4.50-<5.00) |  |  |
| Cc1c(C(=O)N[C@@H](C)c2ccccc2)[nH]c2ccc(F)cc12 [Compound 60] | + (+ = pIC50 4.50-<5.00) | + (+ = pIC50 4.50-<5.00) |  |  |
| C[C@@H](NC(=O)c1cc2cccc(F)c2[nH]1)c1ccccc1 [Compound 61] | +++ (+++ = pIC50 ≥5.50) | +++ (+++ = pIC50 ≥5.50) |  |  |

| SMILES | TDO cellular assay (A172) pIC50 (TDO (A172 cells)) | IDO cellular assay (SKOV3) pIC50 (IDO (SKOV-3 cells)) | IC50 (TDO (A172 cells); read-out: TDO cellular assay (A172) pIC50 (converted)) | IC50 (IDO (SKOV-3 cells); read-out: IDO cellular assay (SKOV3) pIC50 (converted)) |
| --- | --- | --- | --- | --- |
| C[C@@H](NC(=O)c1cc2c(F)cccc2[nH]1)c1ccccc1 [Compound 62] | +++ (+++ = pIC50 ≥5.50) | +++ (+++ = pIC50 ≥5.50) |  |  |
| C[C@H](NC(=O)c1cc2cccc(F)c2[nH]1)c1ccccc1 [Compound 63] | + (+ = pIC50 4.50-<5.00) | + (+ = pIC50 4.50-<5.00) |  |  |
| O=C(Nc1cccc2ncccc12)c1cc2ccc(F)cc2[nH]1 [Compound 64] | ++ (++ = pIC50 5.00-<5.50) | ++ (++ = pIC50 5.00-<5.50) |  |  |
| O=C(Nc1cccc2ccccc12)c1cc2ccc(F)cc2[nH]1 [Compound 65] | − (− = pIC50 <4.50) | +++ (+++ = pIC50 ≥5.50) |  |  |
| O=C(NC1CCCc2ccccc21)c1cc2ccccc2[nH]1 (stereo not drawn) [Compound 66] | − (− = pIC50 <4.50) | ++ (++ = pIC50 5.00-<5.50) |  |  |
| CC(C)NC(=O)c1cc2cc(Cl)ccc2[nH]1 [Compound 67] | ++ (++ = pIC50 5.00-<5.50) | + (+ = pIC50 4.50-<5.00) |  |  |
| CC(C)(NC(=O)c1cc2cc(Cl)ccc2[nH]1)c1ccccc1 [Compound 68] | ++ (++ = pIC50 5.00-<5.50) | +++ (+++ = pIC50 ≥5.50) |  |  |
| CC(NC(=O)c1cc2cc(Cl)ccc2[nH]1)C1CCCCC1 (stereo not drawn) [Compound 69] | ++ (++ = pIC50 5.00-<5.50) | +++ (+++ = pIC50 ≥5.50) |  |  |
| COc1ccc(C(C)NC(=O)c2cc3cc(Cl)ccc3[nH]2)cc1 (stereo not drawn) [Compound 70] | ++ (++ = pIC50 5.00-<5.50) | +++ (+++ = pIC50 ≥5.50) |  |  |
| CC(C)C(C)NC(=O)c1cc2cc(Cl)ccc2[nH]1 (stereo not drawn) [Compound 71] | + (+ = pIC50 4.50-<5.00) | +++ (+++ = pIC50 ≥5.50) |  |  |
| C[C@@H](NC(=O)c1cc2cc(Cl)ccc2[nH]1)c1ccc(Cl)cc1 [Compound 72] | − (− = pIC50 <4.50) | +++ (+++ = pIC50 ≥5.50) |  |  |
| C[C@@H](NC(=O)c1nc2ccccc2o1)c1ccccc1 [Compound 73] | − (− = pIC50 <4.50) | + (+ = pIC50 4.50-<5.00) |  |  |
| O=C(NC1CCOc2ccccc21)c1cc2ccccc2[nH]1 (stereo not drawn) [Compound 74] | − (− = pIC50 <4.50) | + (+ = pIC50 4.50-<5.00) |  |  |
| C[C@H](NC(=O)c1cc2cc(Cl)ccc2[nH]1)c1ccc(Cl)cc1 [Compound 75] | − (− = pIC50 <4.50) | +++ (+++ = pIC50 ≥5.50) |  |  |
| C[C@H](NC(=O)c1nc2ccccc2o1)c1ccccc1 [Compound 76] | − (− = pIC50 <4.50) | + (+ = pIC50 4.50-<5.00) |  |  |
| Cc1cccc2[nH]c(C(=O)NC(C)c3ccccc3)cc12 (stereo not drawn) [Compound 77] | + (+ = pIC50 4.50-<5.00) | +++ (+++ = pIC50 ≥5.50) |  |  |
| Cc1ccc2cc(C(=O)NC(C)c3ccccc3)[nH]c2c1 (stereo not drawn) [Compound 78] | + (+ = pIC50 4.50-<5.00) | ++ (++ = pIC50 5.00-<5.50) |  |  |
| CC(NC(=O)c1cc2cnccc2[nH]1)c1ccccc1 (stereo not drawn) [Compound 79] | − (− = pIC50 <4.50) | + (+ = pIC50 4.50-<5.00) |  |  |
| CC(NC(=O)c1cc2cccnc2[nH]1)c1ccccc1 (stereo not drawn) [Compound 80] | − (− = pIC50 <4.50) | ++ (++ = pIC50 5.00-<5.50) |  |  |
